The values that follow come from patent publication US20100048728A1, “POLYCYCLIC DIANTHRAQUINONES AS INHIBITORS OF INFLAMMATORY CYTOKINES” (HY BIOPHARMA INC., priority 2006, published 2010).

For data set [1], the system named is acute IBD generated in BALB/C mice by DSS. Put plainly: DSS-induced acute inflammatory bowel disease (IBD) in mice, colon length. Type of data set: in vivo. The procedure:
36 male BABL/c mice anesthetized with Ketamine & Xylazine, are divided into six groups: • Control • Dextran sulfate sodium salt (DSS) alone −8000 MW • DSS with Hypericin 25 μg/animal • DSS with Hypericin 75 μg/animal • Hypericin 25 μg/animal • Hypericin 75 μg/animal
Acute IBD was generated in BALB/C mice (6 mice per group) by DSS administered via the drinking water (3.5% w/v) for 7 days. Hypericin was administered to these animals intraperitoneally at doses of 25 and 75 μg/mouse beginning 48 hrs prior to initiation of DSS administration and at 48 hr intervals thereafter. After 16 days the mice were sacrificed with high dose of sodium pentobarbital, the gastro-intestinal tract removed, its overall length measured and evaluated compared to control untreated healthy mice.

The test system of data set [2] is Mouse L cells. Put plainly: Protection from TNFα-induced cell death, Hemacolor assay. The format is cell-based. The procedure:
Mouse L cells (ATCC) were cultured in complete MEM medium in 37° C. incubator with 5% CO2 and 95% humidity. The culture cells were divided to 6 separate groups: i. untreated control ii. TNFα25 u/ml iii. TNFα25 u/ml and Hypericin 0.5 μg/ml iv. TNFα25 u/ml and Hypericin 1 μg/ml v. TNFα25 u/ml and Hypericin 5 μg/ml vi. TNFα 25 u/ml and Hypericin 7.5 μg/ml.
Hypericin was applied to the cells 48 hr prior to TNFα administration. The experiment was terminated 24 hrs after TNF administration and cell viability evaluated using the Hemacolor assay.

Data set [3] has as its system Herpes simplex type 1 virus induced skin inflammation. Put plainly: Inflammatory skin reactions induced by Herpes simplex type 1 virus in guinea pig dorsa. The note with it: topical 1.2 or 1.7 μg Hypericin/gr Vaseline, 3× per day for 3 days, evaluated after 96 hrs.
Data set [4] concerns Mouse L cells. Put plainly: Protection from TNFα-induced cell death, MTT assay. Type of data set: cell-based. The procedure: Mouse L cells (ATCC) were cultured in complete MEM medium in 37° C. incubator with 5% CO2 and 95% humidity. The culture cells were divided to […]: i. untreated control ii. Hypericin 0.5 μg/ml iii. Hypericin 1 μg/ml iv. TNFα10 u/ml v. TNFα25 u/ml vi. TNFα10 u/ml and Hypericin 0.5 μg/ml vii. TNFα10 u/ml and Hypericin 1 μg/ml viii. TNFα 25 u/ml and Hypericin 0.5 μg/ml ix. TNFα25 u/ml and Hypericin 1 μg/ml.
Hypericin was applied to the cells 48 hr prior to TNFα administration. The experiment was terminated 24 hrs after TNF administration and cell viability evaluated by MTT assay.
(In general: Tetrazolium dyes change colour on reduction, which living cells bring about.)

Consider `Cc1cc(O)c2c(=O)c3c(O)cc(O)c4c5c(O)cc(O)c6c(=O)c7c(O)cc(C)c8c1c2c(c34)c(c78)c65` [Hypericin, hypericin], for which the colon length entry in data set [1] (Hypericin 25 μg/mouse without DSS) was “did not alter the colon length”; in data set [1] (Hypericin 75 μg/mouse intraperitoneally with 3.5% DSS, after 16 days, DSS alone 8.016 cm, control 12.6 cm, P≦0.039 vs DSS alone), 9.067 cm; in data set [1] (Hypericin 75 μg/mouse without DSS), “did not alter the colon length”. Besides, the “prevention of TNFα induced cell death (Hemacolor)” value with Mouse L cells [2] (Hypericin 0.5 μg/ml 48 hr before TNFα 25 u/ml, P≦0.0045) was “prevented cell death significantly”; with Mouse L cells [2] (Hypericin 1 μg/ml 48 hr before TNFα 25 u/ml, P≦0.00049) it was “prevented cell death significantly”; with Mouse L cells [2] (Hypericin 5 μg/ml 48 hr before TNFα 25 u/ml, P≦0.00105), “prevented cell death significantly”; in the data set on Mouse L cells [2] (Hypericin 7.5 μg/ml 48 hr before TNFα 25 u/ml, P≦0.00159), “prevented cell death significantly”; in the data set on Mouse L cells [2] (Hypericin 15 μg/ml before TNFα 25 u/ml), “did not prevent cell death”. Further, the “inflammatory erythema following infection with herpes virus” value in data set [3] is on record as “significantly inhibited”. The “prevention of TNFα induced cell death (MTT)” value is given as “prevented cell death significantly” with Mouse L cells [4] (Hypericin 0.5 μg/ml 48 hr before TNFα 10 u/ml, P≦0.025758); “prevented cell death significantly” with Mouse L cells [4] (Hypericin 0.5 μg/ml 48 hr before TNFα 25 u/ml, P≦0.023446); “prevented cell death significantly” in the data set with Mouse L cells [4] (Hypericin 1 μg/ml 48 hr before TNFα 10 u/ml, P≦0.014777); “prevented cell death significantly” in the data set on Mouse L cells [4] (Hypericin 1 μg/ml 48 hr before TNFα 25 u/ml, P≦0.047198). Moreover, in the data set with Mouse L cells [4] (Hypericin alone, compared to the control group), the “cell viability (MTT)” value was “did not alter cell viability”.
